Measurements published in publication PMC7834738 (Molecular Therapy, 2020).
“Also recorded” adds a separate entry of the source.

Tests used:
[1] = tested on: SARS-CoV-2 (USA_WA1/2020); format: cell-based
[2] = tested on: SARS-CoV-2; details: single agent; cited from earlier work
[3] = tested on: SARS-CoV-2; details: cited from earlier work
[4] = healthy adults; cited from earlier work
[5] = tested on: Vero E6 cells; format: cell-based
[6] = tested on: COVID-19; details: 392 participants, outpatient setting; cited from earlier work

For `CCN(CC)Cc1cc(Nc2ccnc3cc(Cl)ccc23)ccc1O` [Amodiaquine], the “antagonism against GS-441524” value [1] was “not”, the “concentrations that significantly antagonized against remdesivir” value [1] was 0.625 to 5 µM and the “interaction with nitazoxanide in CPE assay” value [1] was “notable synergism”. The “interaction with remdesivir at high concentrations” value [1] was “synergize”, the “interaction with remdesivir in CPE assay” value [1] was “strong antagonistic effect; also recorded: antagonize” and the “fold less potent in Calu-3 (TMPRSS2+) than in Vero E6” value [2] was > 10 fold.
For `CCOC(=O)c1c(CSc2ccccc2)n(C)c2cc(Br)c(O)c(CN(C)C)c12` [Arbidol], the “concentrations showing antagonism against remdesivir” value [1] was 123 to 370 nM, the “concentrations synergizing with remdesivir” value [1] was 3 to 10 µM and the “interaction with remdesivir in CPE assay” value [1] was “antagonize”.
In the case of `N#C[C@@]1(c2ccc3c(N)ncnn23)O[C@H](CO)[C@@H](O)[C@H]1O` [GS-441524], the CPE [1] is reported as “≈ 0”.
In the case of `OC(c1cc(C(F)(F)F)nc2c(C(F)(F)F)cccc12)C1CCCCN1` (centres unmarked) [Mefloquine], the “antagonism against GS-441524” value [1] is reported as “not”, the “concentrations that significantly antagonized against remdesivir” value [1] is reported as 0.625 to 1.25 µM and the “interaction with remdesivir at high concentrations” value [1] is reported as “synergize”. The “interaction with remdesivir in CPE assay” value [1] was “strong antagonistic effect; also recorded: antagonize”.
For `CC(=O)Oc1ccccc1C(=O)Nc1ncc([N+](=O)[O-])s1` [Nitazoxanide], the IC50 [3] is listed as ~2000 nM, the tolerability [4] is listed as “well tolerated” and the cytotoxicity [5] is listed as “not cytotoxic”. For the same compound, the “toxicity to Vero E6 cells” value [5] was ~20%, the “nitazoxanide concentrations with complete rescue of CPE” value [1] was 0.625 to 5 µM and the “efficacy with respect to 7-day viral load and symptom resolution” value [6] was “modest efficacy”.
In the case of `CCOC(=O)C1=C[C@@H](OC(CC)CC)[C@H](NC(C)=O)[C@@H](N)C1` [Oseltamivir phosphate], the antagonism with remdesivir [1] is reported as “no antagonism”.
For `CCC(CC)COC(=O)[C@H](C)N[P@](=O)(OC[C@H]1O[C@@](C#N)(c2ccc3c(N)ncnn23)[C@H](O)[C@@H]1O)Oc1ccccc1` [Remdesivir], the CPE [1] was “≈ 0” and the “interaction with nitazoxanide in CPE assay” value [1] was “notable synergism”.
